From ChEMBL document CHEMBL3785017, “Induction of apoptosis and differentiation by atractylenolide-1 isolated from Atractylodes macrocephala in human leukemia cells” (Bioorg Med Chem Lett, 2016)
Converted amounts (≈) assume the structure as drawn. The source made the active and inactive calls. No cut-off for these calls is given here.

Tests used:
[1] = Induction of cell differentiation in human U937 cells assessed as upregulation of CD68 at 0.1 uM after 72 hrs by flow cytometry (reference value: 5.9%); format: functional, cell-based; conditions: U-937
[2] = Induction of cell differentiation in human U937 cells assessed as upregulation of CD14 at 0.1 uM after 72 hrs by flow cytometry (reference value: 4.3%); format: functional, cell-based; conditions: U-937
K562 [3] = assay: Induction of cell differentiation in human K562 cells assessed as upregulation of CD14 at 0.1 uM after 72 hrs by flow cytometry (reference value: 6.4%); format: functional
U-937 [4] = assay: Induction of phagocytosis in human U937 cells at 0.1 uM measured using fluorescent latex beads after 2 hrs by flow cytometry; format: functional, cell-based
K562 [5] = assay: Induction of phagocytosis in human K562 cells at 0.1 uM preincubated for 4 to 6 days followed by addition of fluorescent latex beads measured after 2 hrs by flow cytometry; format: functional, cell-based
[6] = Induction of cell differentiation in human U937 cells assessed as upregulation of CD14 at 10 uM after 72 hrs by flow cytometry; format: functional, cell-based; conditions: U-937
K562 [7] = assay: Induction of cell differentiation in human K562 cells assessed as upregulation of CD14 at 10 uM after 72 hrs by flow cytometry; format: functional, cell-based
K562 [8] = assay: Induction of phagocytosis in human K562 cells at 10 uM incubated for 4 to 6 days followed by fluorescent latex beads addition measured after 2 hrs by flow cytometry; format: functional, cell-based
U-937 [9] = assay: Induction of phagocytosis in human U937 cells at 10 uM measured using fluorescent latex beads after 2 hrs by flow cytometry; format: functional, cell-based
U-937 [10] = assay: Induction of apoptosis in human U937 cells assessed as procaspase 9 degradation at 6.25 to 50 ug/ml after 24 hrs by Western blot analysis; format: functional, cell-based
[11] = Cytotoxicity against human Jurkat T cells assessed as growth inhibition after 24 hrs by MTT assay; format: functional, cell-based
K562 [12] = assay: Cytotoxicity against human K562 CML cells assessed as growth inhibition treated with high doses of compound after 48 to 72 hrs by MTT assay; format: functional, cell-based
[13] = Cell cycle arrest in human Jurkat T cells assessed as accumulation at sub G1 phase at 50 ug/ml after 24 hrs by propidium iodide staining based flow cytometry (reference value: 0.9%); format: functional
[14] = Cytotoxicity against human Jurkat T cells assessed as growth inhibition after 48 hrs by MTT assay; format: functional, cell-based
Jurkat [15] = assay: Induction of apoptosis in human Jurkat T cells assessed as PARP degradation at 50 ug/ml after 24 hrs by Western blot analysis; format: functional, cell-based
Jurkat [16] = assay: Induction of apoptosis in human Jurkat T cells assessed as fragmented chromosomal DNA at 6.25 to 50 ug/ml after 12 to 48 hrs by agarose gel electrophoresis; format: functional, cell-based
U-937 [17] = assay: Induction of apoptosis in human U937 cells assessed as procaspase 3 degradation at 6.25 to 50 ug/ml after 24 hrs by Western blot analysis; format: functional, cell-based
Jurkat [18] = assay: Induction of apoptosis in human Jurkat T cells assessed as procaspase 9 degradation at 6.25 to 50 ug/ml after 24 hrs by Western blot analysis; format: functional, cell-based
[19] = Cell cycle arrest in human Jurkat T cells assessed as accumulation at sub G1 phase at 12.5 ug/ml after 24 hrs by propidium iodide staining based flow cytometry (reference value: 0.9%); format: functional
Jurkat [20] = assay: Induction of apoptosis in human Jurkat T cells assessed as procaspase 3 degradation at 6.25 to 50 ug/ml after 24 hrs by Western blot analysis; format: functional, cell-based
[21] = Induction of cell differentiation in human U937 cells assessed as upregulation of CD14 at 6.25 ug/ml after 72 hrs by flow cytometry (reference value: 4.3%); format: functional, cell-based; conditions: U-937
[22] = Cytotoxicity against human Jurkat T cells assessed as growth inhibition after 12 hrs by MTT assay; format: functional, cell-based
[23] = Cell cycle arrest in human U937 cells assessed as accumulation at sub G1 phase at 50 to 100 ug/ml after 24 hrs by propidium iodide staining based flow cytometry; format: functional; conditions: U-937
U-937 [24] = assay: Induction of apoptosis in human U937 cells assessed as fragmented chromosomal DNA at 6.25 to 50 ug/ml after 12 to 48 hrs by agarose gel electrophoresis; format: functional, cell-based
K562 [25] = assay: Induction of cell differentiation in human K562 cells assessed as upregulation of CD14 at 12.5 ug/ml after 72 hrs by flow cytometry (reference value: 6.4%); format: functional
[26] = Induction of cell differentiation in human U937 cells assessed as upregulation of CD68 at 6.25 ug/ml after 72 hrs by flow cytometry (reference value: 5.9%); format: functional, cell-based; conditions: U-937
K562 [27] = assay: Induction of cell differentiation in human K562 cells assessed as upregulation of CD14 at 50 ug/ml after 72 hrs by flow cytometry (reference value: 6.4%); format: functional
U-937 [28] = assay: Induction of cell death in human U937 at 12.5 to 25 ug/ml cells after 24 hrs; format: functional, cell-based
[29] = Induction of cell differentiation in human U937 cells assessed as upregulation of CD68 at 12.5 ug/ml after 72 hrs by flow cytometry (reference value: 5.9%); format: functional, cell-based; conditions: U-937
K562 [30] = assay: Cell cycle arrest in human K562 cells assessed as accumulation at sub G1 phase at 50 to 100 ug/ml after 48 hrs by propidium iodide staining based flow cytometry; format: functional
[31] = Cell cycle arrest in human Jurkat T cells assessed as accumulation at sub G1 phase at 25 ug/ml after 24 hrs by propidium iodide staining based flow cytometry (reference value: 0.9%); format: functional
U-937 [32] = assay: Induction of phagocytosis in human U937 cells at 6.25 to 12.5 ug/ml measured using fluorescent latex beads after 2 hrs by flow cytometry relative to control; format: functional
[33] = Cytotoxicity against human U937 cells assessed as growth inhibition after 24 hrs by MTT assay; format: functional, cell-based; conditions: U-937, 24 h
[34] = Cytotoxicity against human U937 cells assessed as growth inhibition after 48 hrs by MTT assay; format: functional, cell-based; conditions: U-937, 48 h
U-937 [35] = assay: Induction of apoptosis in human U937 cells assessed as PARP degradation at 50 ug/ml after 24 hrs by Western blot analysis; format: functional, cell-based
Jurkat [36] = assay: Induction of cell death in human Jurkat T cells; format: functional, cell-based
K562 [37] = assay: Induction of cell death in human K562 cells at 12.5 to 50 ug/ml after 48 hrs; format: functional, cell-based

## CCCCCCCCCCCCCC(=O)O[C@@H]1[C@@H](C)[C@@]2(O)[C@@H](C=C(CO)C[C@]3(O)C(=O)C(C)=C[C@@H]23)[C@@H]2C(C)(C)[C@]12OC(C)=O [PHORBOL MYRISTATE ACETATE]
[1]
  Activity: 39.2%
[2]
  Activity: 25%
K562 [3]
  Activity: 38.1%
U-937 [4]
  Activity: Active
K562 [5]
  Activity: Active

## CC[C@@]1(O)C(=O)OCc2c1cc1n(c2=O)Cc2cc3ccccc3nc2-1
[6]
  Activity: inactive
K562 [7]
  Activity: inactive
K562 [8]
  Activity: inactive
U-937 [9]
  Activity: inactive

## C=C1CCC[C@]2(C)C=C3OC(=O)C(C)=C3C[C@@H]12 [ATRACTYLENOLIDE I]
U-937 [10]
  Activity: Active
[11]
  IC50: 37.6 µg/mL (≈ 163 µM)
K562 [12]
  growth inhibition (GI): Active
[13]
  Activity: 32.3%
[14]
  IC50: 24.4 µg/mL (≈ 106 µM)
Jurkat [15]
  Activity: Active
Jurkat [16]
  Activity: Active
U-937 [17]
  Activity: Active
Jurkat [18]
  Activity: Active
[19]
  Activity: 7.5%
Jurkat [20]
  Activity: Active
[21]
  Activity: 25.6%
[22]
  IC50: 44.7 µg/mL (≈ 194 µM)
[23]
  Activity: > 50%
U-937 [24]
  Activity: Active
K562 [25]
  Activity: 13.4%
[26]
  Activity: 53.3%
K562 [27]
  Activity: 18.1%
U-937 [28]
  Activity: Active
[29]
  Activity: 84.3%
K562 [30]
  Activity: >50%
[31]
  Activity: 20.3%
U-937 [32]
  Activity: 50%
[33]
  IC50: 14.9 µg/mL (≈ 64.7 µM)
[34]
  IC50: 4.23 µg/mL (≈ 18.4 µM)
U-937 [35]
  Activity: Active
Jurkat [36]
  Activity: Active
K562 [37]
  Activity: Active
